Test results: patent publication US20190070204A1, “PROLIFERATIVE AGENT FOR FAECALIBACTERIUM” (B FOOD SCIENCE CO., LTD., priority 2016, published 2019)

How the values were obtained:
[1] = test system: Faecalibacterium prausnitzii strain ATCC27768; experiment: Faecalibacterium proliferative effect in vitro: culture turbidity with oligosaccharide added; type: cell-based; settings: for turbidity (OD value) at 660 nm: oligosaccharide 5.0 g/L, 37° C., anaerobic
Experimental: Liquid media of the following composition was prepared sterile. 1-Kestose (purity of 99% by mass, B Food Science Co., Ltd.), nystose (purity of 98% by mass, Wako Pure Chemical Industries, Ltd.), xylooligosaccharide (purity of 99% by mass, B Food Science Co., Ltd.), raffinose (purity of 98% by mass, Meiji Food Materia Co., Ltd.) and lactosucrose (purity of 89% by mass, Ensuiko Sugar Refining Co., Ltd.) were used as oligosaccharides. Moreover, a liquid medium of the following composition with no oligosaccharide was also prepared as a control.
[Composition of Liquid Medium/Per L] (Final pH: 7.0)
Casein digest 15.0 g, yeast extract 5.0 g, L-cystine 0.5 g, sodium chloride 2.5 g, thioglycolic acid 0.5 g, tryptophan 25 mg, hemin proper quantity, vitamin K1 proper quantity, oligosaccharide 5.0 g.
A prepared liquid medium was inoculated with Faecalibacterium prausnitzii strain ATCC27768 precultured until confluent to a turbidity with an OD (Optical Density) value at 660 nm of 0.05 to 0.06. The inoculated culture was cultured statically at 37° C. in anaerobic environment and the turbidity (OD value) at 660 nm was measured with a spectrophotometer 24 hours, 48 hours, and 72 hours later. Moreover, the relation between OD value and the duration of culture is illustrated in a line graph of FIG. 1. Moreover, OD values at a duration of time of 72 hours are illustrated in a bar graph of FIG. 2.

Faecalibacterium = Faecalibacterium proliferative effect in vivo: cell number in feces of infants by real-time PCR; parameters: species or system human (infants); settings: for mean number of cells of Faecalibacterium (log10) / mean number of cells of Faecalibacterium per g feces: infants, oral, daily 1-3 g; for Significant difference (vs 0 week): Wilcoxon signed rank test; for cell number of Faecalibacterium over study period (in words): 12-week study
Text: 58 infants from 6 months old to 6 years old were divided into 2 groups of 29 infants and they were designated 1-Kestose Group and Maltose Group. 1-Kestose Group took 1-kestose (purity 98% by mass or more, B Food Science Co., Ltd.) orally and Maltose Group took maltose (purity of 92% by mass or more, “Sunmalt-S” powder, Sanwa Starch Co., Ltd.) orally every day during the study period. The test period was 12 weeks. The daily intake of 1-kestose or maltose was 1 g (estimated intake; 0.121 g/kg body weight/day) for infants under 1 year old, 2 g (estimated intake; 0.169 g/kg body weight/day) for infants from 1 to 3 years old, and 3 g (estimated intake; 0.170 g/kg body weight/day) for infants from 4 to 6 years old. […] The estimated intake mentioned above was calculated based on the age-specific body weight data published in “2010 National growth survey on preschool children of the Ministry of Health, Labour and Welfare”. More specifically, the male and female medians were separately calculated from the minimums and the maximums of the body weight data within the age ranges of the study participants of Example 2 and the means of the medians were calculated. Subsequently, the male and female means of the means of the medians were calculated as estimated body weights. The estimated body weights were 8.26 kg for under 1 year old, 11.85 kg for 1 to 3 years old, and 17.62 kg for 4 to 6 years old. […] The numbers of cells of Faecalibacterium in the recovered feces were quantified by real-time PCR. Specifically, genomic DNA was first extracted from the feces using the reagent for genome extraction “Ultra Clean Soil DNA Isolation Kit” (Mo Bio Laboratories Inc.) and “High Pure PCR Template Preparation Kit” (Roche). […] The standard curve was generated based on the result of real-time PCR performed under the same conditions using genomic DNA extracted in the same way from Faecalibacterium prausnitzii strain ATCC27768 strain cultured in pure culture and counted under a microscope. The mean of cell numbers was calculated for each group.

Compound | turbidity (OD value) at 660 nm ([1]; duration of culture 0 hour) | turbidity (OD value) at 660 nm ([1]; duration of culture 24 hours) | turbidity (OD value) at 660 nm ([1]; duration of culture 48 hours) | turbidity (OD value) at 660 nm ([1]; duration of culture 72 hours) | mean number of cells of Faecalibacterium (log10) (Faecalibacterium; 0 week) [cells log10/g feces] | mean number of cells of Faecalibacterium per g feces (Faecalibacterium; 0 week) | change of cell number from 0 weeks (in words) (Faecalibacterium; 6 weeks) | Significant difference (vs 0 week) (Faecalibacterium; 6 weeks) | mean number of cells of Faecalibacterium (log10) (Faecalibacterium; 6 weeks) [cells log10/g feces] | mean number of cells of Faecalibacterium per g feces (Faecalibacterium; 6 weeks) | cell number of Faecalibacterium over study period (in words) (Faecalibacterium) | change of cell number from 0 weeks (in words) (Faecalibacterium; 12 weeks) | Significant difference (vs 0 week) (Faecalibacterium; 12 weeks) | mean number of cells of Faecalibacterium (log10) (Faecalibacterium; 12 weeks) [cells log10/g feces] | mean number of cells of Faecalibacterium per g feces (Faecalibacterium; 12 weeks) | OD values versus control and other oligosaccharides (in words) ([1]; 24 hours, 48 hours and 72 hours) | increase of cell number from 0 weeks (Faecalibacterium; 6 weeks) [times] | increase of cell number from 0 weeks (Faecalibacterium; 12 weeks) [times]
OC[C@H]1O[C@H](OC[C@H]2O[C@H](O[C@]3(CO)O[C@H](CO)[C@@H](O)[C@@H]3O)[C@H](O)[C@@H](O)[C@@H]2O)[C@H](O)[C@@H](O)[C@H]1O [Raffinose, raffinose] | 0.052 | 0.251 | 0.191 | 0.246 |  |  |  |  |  |  |  |  |  |  |  |  |  | 
OC[C@H]1O[C@H](O[C@H]2[C@H](O)[C@@H](O)C(O)O[C@@H]2CO)[C@H](O)[C@@H](O)[C@@H]1O (mixture of isomers) [Maltose, maltose] |  |  |  |  | 6.88 | 7.6 × 10^6 cells/g feces | slightly decreased | Not found | 6.77 | 5.8 × 10^6 cells/g feces | did not increase | slightly increased | Not found | 7.12 | 1.3 × 10^7 cells/g feces |  |  | 
OC[C@H]1O[C@@H](O[C@H]2[C@H](O)[C@@H](O)[C@@H](O[C@]3(CO)O[C@H](CO)[C@@H](O)[C@@H]3O)O[C@@H]2CO)[C@H](O)[C@@H](O)[C@H]1O [Lactosucrose, lactosucrose] | 0.055 | 0.298 | 0.448 | 0.295 |  |  |  |  |  |  |  |  |  |  |  |  |  | 
OC[C@H]1O[C@@](CO)(OC[C@@]2(O[C@H]3O[C@H](CO)[C@@H](O)[C@H](O)[C@H]3O)O[C@H](CO)[C@@H](O)[C@@H]2O)[C@@H](O)[C@@H]1O [1-kestose] | 0.063 | 0.345 | 0.885 | 1.803 | 6.57 | 3.7 × 10^6 cells/g feces |  | Not found | 7.16 | 1.4 × 10^7 cells/g feces | increased markedly |  | Found | 7.54 | 3.5 × 10^7 cells/g feces | markedly greater | ≥ 3.5 | ≥ 9
OC[C@H]1O[C@@](CO)(OC[C@@]2(OC[C@@]3(O[C@H]4O[C@H](CO)[C@@H](O)[C@H](O)[C@H]4O)O[C@H](CO)[C@@H](O)[C@@H]3O)O[C@H](CO)[C@@H](O)[C@@H]2O)[C@@H](O)[C@@H]1O [Nystose, nystose] | 0.063 | 0.290 | 0.443 | 0.305 |  |  |  |  |  |  |  |  |  |  |  |  |  | 
